Experimental data from ChEMBL document CHEMBL3286296, “Design and synthesis of phenylisoxazole derivatives as novel human acrosin inhibitors” (Bioorg Med Chem Lett, 2014).
pIC50: −log10 of the molar value.

Experiments:
Acrosin [1] = target: T1, Acrosin (Homo sapiens, UniProt P10323); test: Inhibition of human acrosin using N-alpha-benzoyl-L-arginine p-nitroanilide as substrate after 3 hrs by spectrophotometry
Acrosin [2] = target: T1, Acrosin; test: Ratio of ISO-1 IC50 to compound IC50 for human acrosin using N-alpha-benzoyl-L-arginine p-nitroanilide as substrate after 3 hrs by spectrophotometry
[3] = Inhibition of pig trypsin; set-up: species or system Sus scrofa

T1 sequence (P10323 20-42 limits assumed): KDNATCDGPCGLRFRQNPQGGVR
T1 sequence (P10323 43-343 limits assumed): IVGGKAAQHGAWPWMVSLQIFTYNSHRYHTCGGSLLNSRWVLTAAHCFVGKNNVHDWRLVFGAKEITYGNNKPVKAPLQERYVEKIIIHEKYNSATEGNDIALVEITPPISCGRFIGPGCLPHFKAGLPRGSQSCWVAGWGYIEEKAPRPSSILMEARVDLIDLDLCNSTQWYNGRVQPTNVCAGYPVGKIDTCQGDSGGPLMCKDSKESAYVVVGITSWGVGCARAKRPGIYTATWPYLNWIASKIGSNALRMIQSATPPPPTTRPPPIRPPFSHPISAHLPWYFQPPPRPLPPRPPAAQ

SMILES	pIC50 (Acrosin [1])	Ratio IC50 (Acrosin [2])	pIC50 [3]
Cc1cc(C)cc(NC(=O)c2cc(-c3ccc(NC(=N)N)cc3)on2)c1	4.92		
Cc1cccc(NC(=O)c2cc(-c3ccc(NC(=N)N)cc3)on2)c1	5.03		
Cc1ccccc1NC(=O)c1cc(-c2ccc(NC(=N)N)cc2)on1	4.84		
N=C(N)Nc1ccc(-c2cc(C(=O)Nc3ccccc3Br)no2)cc1	4.55		
N=C(N)Nc1ccc(-c2cc(C(=O)Nc3cccc(Cl)c3)no2)cc1	4.60		
CCOC(=O)c1cc(-c2ccc(NC(=O)c3ccccc3Cl)cc2)on1	4.22	6	
CCOC(=O)c1cc(-c2ccc(NC(=O)c3ccccc3)cc2)on1	3.34		
Cc1cccc(NC(=O)c2cc(-c3ccc(NC(=N)N)cc3)on2)c1C	4.94		
CC(C)NC(=O)c1cc(-c2ccc(NC(=N)N)cc2)on1	< 4.00		
CC(CO)NC(=O)c1cc(-c2ccc(NC(=N)N)cc2)on1 (configuration not stated)	< 4.00		
N=C(N)Nc1ccc(-c2cc(C(=O)Nc3ccc(C(F)(F)F)cc3)no2)cc1	4.69		
COc1cccc(NC(=O)c2cc(-c3ccc(NC(=N)N)cc3)on2)c1	5.18		
COc1ccc(NC(=O)c2cc(-c3ccc(NC(=N)N)cc3)on2)c(OC)c1	5.85		2.38
CCOC(=O)c1ccc(NC(=O)c2cc(-c3ccc(NC(=N)N)cc3)on2)cc1	5.03		
N=C(N)Nc1ccc(-c2cc(C(=O)Nc3ccc(F)cc3)no2)cc1	4.69		
N=C(N)Nc1ccc(-c2cc(C(=O)Nc3ccc(Cl)cc3)no2)cc1	4.57		
N=C(N)Nc1ccc(-c2cc(C(=O)Nc3ccccc3)no2)cc1	4.61		
Cc1ccc(NC(=O)c2cc(-c3ccc(NC(=N)N)cc3)on2)cc1	5.00		
N=C(N)Nc1ccc(-c2cc(C(=O)Nc3cccc(Br)c3)no2)cc1	4.84		
Cc1ccnc(NC(=O)c2cc(-c3ccc(NC(=N)N)cc3)on2)c1	4.67		
CCOc1ccc(NC(=O)c2cc(-c3ccc(NC(=N)N)cc3)on2)cc1	5.19		
COc1ccc(OC)c(NC(=O)c2cc(-c3ccc(NC(=N)N)cc3)on2)c1	5.64		
CCOC(=O)c1cc(-c2ccc(NC(=O)c3ccc(F)cc3)cc2)on1	3.85		
N#Cc1ccc(NC(=O)c2cc(-c3ccc(NC(=N)N)cc3)on2)cc1	4.62		
COc1ccccc1NC(=O)c1cc(-c2ccc(NC(=N)N)cc2)on1	5.08		
Cc1cccc(C)c1NC(=O)c1cc(-c2ccc(NC(=N)N)cc2)on1	5.24		
CCOC(=O)c1cc(-c2ccc(NC(=O)c3ccc(Cl)c(Cl)c3)cc2)on1	3.62		
CC(C)(C)c1ccc(NC(=O)c2cc(-c3ccc(NC(=N)N)cc3)on2)cc1	5.11		
CCOC(=O)c1cc(-c2ccc(NC(=O)c3ccc(Cl)cc3)cc2)on1	3.42		
N=C(N)Nc1ccc(-c2cc(C(=O)Nc3cccc4ccccc34)no2)cc1	4.52		
